Paper PMC7034945 (RSC Advances, 2019)
Like-named read-outs stand apart in the source and are kept apart here.

Assays:
TZM-bl cells = settings: uninfected TZM-bl cells, NA = no cytotoxicity at the test concentration
HIV-1 NL4-3 virus = assay: Anti-HIV-1 activity, multicycle assay with HIV-1 NL4-3 in TZM-bl cells; assay type: cell-based; settings: for anti-HIV-1 activity (in words) / SI (selectivity index, ratio of CC50/EC50): TZM-bl cells; for anti-HIV-1 activity (in words): at the test concentration
in vitro = settings: human
HIV-1 CA monomer = HIV-1 CA monomer (Human immunodeficiency virus type 1 group M subtype B, UniProt P12493); assay: biochemical; assay type: binding, HIV-1 NL4-3
[1] = Table 2, HIV-1 NL4-3, TZM-bl cells, NA = no anti-HIV-1 activity at the test concentration
[2] = Table 1, HIV-1 NL4-3, TZM-bl cells, NA = no anti-HIV-1 activity at the test concentration
[3] = Caco-2, pH 7.4, Mean Papp A to B, Caco-2, 2 μM, 2 hours, pH 7.40
[4] = Caco-2, pH 7.4, Rank Papp, Caco-2, A to B, permeability class
[5] = Caco-2, pH 7.4, apparent permeability (Papp), Caco-2 cells
[6] = Human immunodeficiency virus 1, NL43, TZM-bl

3-(1-(2-(Hydroxymethyl)-5-(5-methyl-2,6-dioxo-1,2,3,6-tetrahydropyridin-3-yl)tetrahydrofuran-3-yl)-1H-1,2,3-triazol-4-yl)-N-((S)-1-((4-methoxyphenyl)(methyl)amino)-1-oxo-3-phenylpropan-2-yl)benzamide [III-15o]
CC50 (TZM-bl cells; Table 2): > 29.4 µM
EC50 (HIV-1 NL4-3 virus; [1]): > 29.4 µM

Methyl (S)-4-(4-((3-(3,5-difluorophenyl)-1-((4-methoxyphenyl)(methyl)amino)-1-oxopropan-2-yl)carbamoyl)-1H-1,2,3-triazol-1-yl)benzoate [I-8p]
CC50 (TZM-bl cells; Table 1): > 18.2 µM
EC50 (HIV-1 NL4-3 virus; [2]): 14.2 ± 3.46 µM

COCCc1ccc(OCC(O)CNC(C)C)cc1 (stereo not shown) [Metoprolol]
Papp A→B (in vitro; [3]): 16.4 ×10⁻⁶ cm/s
Papp A→B (in vitro; [4]): > 2.5 ×10⁻⁶ cm/s
Papp A→B (in vitro; [5]): 16.4 ×10⁻⁶ cm/s

(S)-N-(1-((4-Methoxyphenyl)(methyl)amino)-1-oxo-3-phenylpropan-2-yl)-3-(1-(quinolin-2-yl)-1H-1,2,3-triazol-4-yl)benzamide [III-15i]
CC50 (TZM-bl cells; Table 2): > 34.3 µM
EC50 (HIV-1 NL4-3 virus; [1]): > 34.3 µM

(S)-N-(3-(3,5-Difluorophenyl)-1-((4-methoxyphenyl)(methyl)amino)-1-oxopropan-2-yl)-3-(1-(quinolin-2-yl)-1H-1,2,3-triazol-4-yl)benzamide [II-10i]
CC50 (TZM-bl cells; Table 2): > 32.3 µM
anti-HIV-1 activity (in words) (HIV-1 NL4-3 virus): exhibited anti-HIV-1 activity at the test concentration
EC50 (HIV-1 NL4-3 virus; [1]): 21.5 ± 4.53 µM

N-((S)-3-(3,5-Difluorophenyl)-1-((4-methoxyphenyl)(methyl)amino)-1-oxopropan-2-yl)-1-(2-(hydroxymethyl)-5-(5-methyl-2,6-dioxo-1,2,3,6-tetrahydropyridin-3-yl)tetrahydrofuran-3-yl)-1H-1,2,3-triazole-4-carboxamide [I-8u]
CC50 (TZM-bl cells; Table 1): > 15.6 µM
anti-HIV-1 activity (in words) (HIV-1 NL4-3 virus): lost its anti-HIV-1 activity
EC50 (HIV-1 NL4-3 virus; [2]): > 15.6 µM

COc1ccc(N(C)C(=O)[C@H](Cc2cc(F)cc(F)c2)NC(=O)c2cn(Cc3cccc(C#N)c3)nn2)cc1 [I-8h, (S)-1-(3-Cyanobenzyl)-N-(3-(3,5-difluorophenyl)-1-((4-methoxyphenyl)(methyl)amino)-1-oxopropan-2-yl)-1H-1,2,3-triazole-4-carboxamide]
EC50 (HIV-1 NL4-3 virus; [6]): 3.58 ± 0.64 µM
SI (selectivity index, ratio of CC50/EC50) (HIV-1 NL4-3 virus; Table 1): >5.27

COc1ccc(N(C)C(=O)[C@H](Cc2cc(F)cc(F)c2)NC(=O)c2cccc(-c3cn(CCCc4ccccc4)nn3)c2)cc1 [II-10g, (S)-N-(3-(3,5-Difluorophenyl)-1-((4-methoxyphenyl)(methyl)amino)-1-oxopropan-2-yl)-3-(1-(3-phenylpropyl)-1H-1,2,3-triazol-4-yl)benzamide]
EC50 (HIV-1 NL4-3 virus; [6]): > 32.8 µM

COc1ccc(N(C)C(=O)[C@H](Cc2cc(F)cc(F)c2)NC(=O)c2cn(Cc3ccc(C)cc3)nn2)cc1 [I-8c, (S)-N-(3-(3,5-Difluorophenyl)-1-((4-methoxyphenyl)(methyl)amino)-1-oxopropan-2-yl)-1-(4-methylbenzyl)-1H-1,2,3-triazole-4-carboxamide]
EC50 (HIV-1 NL4-3 virus; [6]): 10.6 ± 3.46 µM
SI (selectivity index, ratio of CC50/EC50) (HIV-1 NL4-3 virus; Table 1): >1.82

Ethyl (S)-2-(4-(3-((1-((4-methoxyphenyl)(methyl)amino)-1-oxo-3-phenylpropan-2-yl)carbamoyl)phenyl)-1H-1,2,3-triazol-1-yl)acetate [III-15n]
CC50 (TZM-bl cells; Table 2): > 36 µM
anti-HIV-1 activity (in words) (HIV-1 NL4-3 virus): lost anti-HIV-1 activity completely
EC50 (HIV-1 NL4-3 virus; [1]): > 36 µM

COc1ccc(N(C)C(=O)[C@H](Cc2cc(F)cc(F)c2)NC(=O)c2cn(Cc3cccc(Cl)c3)nn2)cc1 [I-8e, (S)-1-(3-Chlorobenzyl)-N-(3-(3,5-difluorophenyl)-1-((4-methoxyphenyl)(methyl)amino)-1-oxopropan-2-yl)-1H-1,2,3-triazole-4-carboxamide]
EC50 (HIV-1 NL4-3 virus; [6]): 8.33 ± 1.41 µM
SI (selectivity index, ratio of CC50/EC50) (HIV-1 NL4-3 virus; Table 1): >2.22

CCOC(=O)Cn1cc(-c2cccc(C(=O)N[C@@H](Cc3cc(F)cc(F)c3)C(=O)N(C)c3ccc(OC)cc3)c2)nn1 [II-10m, Ethyl (S)-2-(4-(3-((3-(3,5-difluorophenyl)-1-((4-methoxyphenyl)(methyl)amino)-1-oxopropan-2-yl)carbamoyl)phenyl)-1H-1,2,3-triazol-1-yl)acetate]
anti-HIV-1 activity (in words) (HIV-1 NL4-3 virus): lost anti-HIV-1 activity completely

COc1ccc(N(C)C(=O)[C@H](Cc2cc(F)cc(F)c2)NC(=O)c2cccc(-c3cn(Cc4ccccc4[N+](=O)[O-])nn3)c2)cc1 [II-10a, (S)-N-(3-(3,5-Difluorophenyl)-1-((4-methoxyphenyl)(methyl)amino)-1-oxopropan-2-yl)-3-(1-(2-nitrobenzyl)-1H-1,2,3-triazol-4-yl)benzamide]
EC50 (HIV-1 NL4-3 virus; [6]): > 35.5 µM

COc1ccc(N(C)C(=O)[C@H](Cc2cc(F)cc(F)c2)NC(=O)c2cccc(-c3cn(Cc4ccc(C(N)=O)cc4)nn3)c2)cc1 [II-10d, (S)-3-(1-(4-Carbamoylbenzyl)-1H-1,2,3-triazol-4-yl)-N-(3-(3,5-difluorophenyl)-1-((4-methoxyphenyl)(methyl)amino)-1-oxopropan-2-yl)benzamide]
EC50 (HIV-1 NL4-3 virus; [6]): 23.4 ± 6.88 µM
anti-HIV-1 activity (in words) (HIV-1 NL4-3 virus): exhibited anti-HIV-1 activity at the test concentration
SI (selectivity index, ratio of CC50/EC50) (HIV-1 NL4-3 virus; Table 2): >1.37

N-((S)-3-(3,5-Difluorophenyl)-1-((4-methoxyphenyl)(methyl)amino)-1-oxopropan-2-yl)-3-(1-(2-(hydroxymethyl)-5-(5-methyl-2,6-dioxo-1,2,3,6-tetrahydropyridin-3-yl)tetrahydrofuran-3-yl)-1H-1,2,3-triazol-4-yl)benzamide [II-10o]
CC50 (TZM-bl cells; Table 2): > 27.9 µM
EC50 (HIV-1 NL4-3 virus; [1]): > 27.9 µM

COc1ccc(N(C)C(=O)[C@H](Cc2cc(F)cc(F)c2)NC(=O)c2cn(Cc3ccccc3C)nn2)cc1 [I-8a, (S)-N-(3-(3,5-Difluorophenyl)-1-((4-methoxyphenyl)(methyl)amino)-1-oxopropan-2-yl)-1-(2-methylbenzyl)-1H-1,2,3-triazole-4-carboxamide]
EC50 (HIV-1 NL4-3 virus; [6]): 8.85 ± 2.69 µM
SI (selectivity index, ratio of CC50/EC50) (HIV-1 NL4-3 virus; Table 1): >2.18

CC(C)(C)NCC(O)COc1cccc2c1CC(O)C(O)C2 (stereo not shown) [Nadolol]
Papp A→B (in vitro; [3]): 0.08 ×10⁻⁶ cm/s
Papp A→B (in vitro; [4]): < 0.5 ×10⁻⁶ cm/s
Papp A→B (in vitro; [5]): 0.08 ×10⁻⁶ cm/s

COc1ccc(N(C)C(=O)[C@H](Cc2ccccc2)NC(=O)c2cccc(-c3cn(Cc4cccc([N+](=O)[O-])c4)nn3)c2)cc1 [III-15b, (S)-N-(1-((4-Methoxyphenyl)(methyl)amino)-1-oxo-3-phenylpropan-2-yl)-3-(1-(3-nitrobenzyl)-1H-1,2,3-triazol-4-yl)benzamide]
EC50 (HIV-1 NL4-3 virus; [6]): > 33.9 µM

COc1ccc(N(C)C(=O)[C@H](Cc2cc(F)cc(F)c2)NC(=O)c2cccc(-c3cn(Cc4cccc([N+](=O)[O-])c4)nn3)c2)cc1 [II-10b, (S)-N-(3-(3,5-Difluorophenyl)-1-((4-methoxyphenyl)(methyl)amino)-1-oxopropan-2-yl)-3-(1-(3-nitrobenzyl)-1H-1,2,3-triazol-4-yl)benzamide]
EC50 (HIV-1 NL4-3 virus; [6]): > 35.5 µM

COc1ccc(N(C)C(=O)[C@H](Cc2cc(F)cc(F)c2)NC(=O)c2cn(Cc3ccccc3Cl)nn2)cc1 [I-8d, (S)-1-(2-Chlorobenzyl)-N-(3-(3,5-difluorophenyl)-1-((4-methoxyphenyl)(methyl)amino)-1-oxopropan-2-yl)-1H-1,2,3-triazole-4-carboxamide]
EC50 (HIV-1 NL4-3 virus; [6]): 9.63 ± 2.04 µM
SI (selectivity index, ratio of CC50/EC50) (HIV-1 NL4-3 virus; Table 1): >1.92

COc1ccc(N(C)C(=O)[C@H](Cc2ccccc2)NC(=O)c2cccc(-c3cn(Cc4ccccc4[N+](=O)[O-])nn3)c2)cc1 [III-15a, (S)-N-(1-((4-Methoxyphenyl)(methyl)amino)-1-oxo-3-phenylpropan-2-yl)-3-(1-(2-nitrobenzyl)-1H-1,2,3-triazol-4-yl)benzamide]
EC50 (HIV-1 NL4-3 virus; [6]): > 33.9 µM

COc1ccc(N(C)C(=O)[C@H](Cc2cc(F)cc(F)c2)NC(=O)c2cccc(-c3cn(Cc4ccc([N+](=O)[O-])cc4)nn3)c2)cc1 [II-10c, (S)-N-(3-(3,5-Difluorophenyl)-1-((4-methoxyphenyl)(methyl)amino)-1-oxopropan-2-yl)-3-(1-(4-nitrobenzyl)-1H-1,2,3-triazol-4-yl)benzamide]
Papp A→B (in vitro; [3]): < 0.01 ×10⁻⁶ cm/s
Papp A→B (in vitro; [4]): < 0.5 ×10⁻⁶ cm/s
Papp A→B (in vitro; [5]): < 0.01 ×10⁻⁶ cm/s
EC50 (HIV-1 NL4-3 virus; [6]): 2.13 ± 0.75 µM
anti-HIV-1 activity (in words) (HIV-1 NL4-3 virus): exhibited anti-HIV-1 activity at the test concentration
SI (selectivity index, ratio of CC50/EC50) (HIV-1 NL4-3 virus; Table 2): >16.66
Kd (HIV-1 CA monomer): 2.2 ± 0.23 µM

COc1ccc(N(C)C(=O)[C@H](Cc2cc(F)cc(F)c2)NC(=O)c2cn(Cc3cccc4ccccc34)nn2)cc1 [I-8m, (S)-N-(3-(3,5-Difluorophenyl)-1-((4-methoxyphenyl)(methyl)amino)-1-oxopropan-2-yl)-1-(naphthalen-1-ylmethyl)-1H-1,2,3-triazole-4-carboxamide]
EC50 (HIV-1 NL4-3 virus; [6]): 14.8 ± 3.24 µM
SI (selectivity index, ratio of CC50/EC50) (HIV-1 NL4-3 virus; Table 1): >1.22

COc1ccc(N(C)C(=O)[C@H](Cc2cc(F)cc(F)c2)NC(=O)c2cn(Cc3ccc(C#N)cc3)nn2)cc1 [I-8i, (S)-1-(4-Cyanobenzyl)-N-(3-(3,5-difluorophenyl)-1-((4-methoxyphenyl)(methyl)amino)-1-oxopropan-2-yl)-1H-1,2,3-triazole-4-carboxamide]
EC50 (HIV-1 NL4-3 virus; [6]): 5.84 ± 1.53 µM
SI (selectivity index, ratio of CC50/EC50) (HIV-1 NL4-3 virus; Table 1): >3.23

COc1ccc(N(C)C(=O)[C@H](Cc2cc(F)cc(F)c2)NC(=O)c2cn(Cc3ccc(C(N)=O)cc3)nn2)cc1 [I-8s, (S)-1-(4-Carbamoylbenzyl)-N-(3-(3,5-difluorophenyl)-1-((4-methoxyphenyl)(methyl)amino)-1-oxopropan-2-yl)-1H-1,2,3-triazole-4-carboxamide]
EC50 (HIV-1 NL4-3 virus; [6]): 11.1 ± 2 µM
SI (selectivity index, ratio of CC50/EC50) (HIV-1 NL4-3 virus; Table 1): >1.64
